Earlier results on 1 molecule are cited in patent publication US20060280691A1 (University of Alberta, priority 2005, published 2006).

By MIC90 is commonly meant an inhibitory concentration at the 90% level, which refers to growth in some studies and to a panel of isolates in others. As usually defined, the MIC is the lowest concentration found to suppress growth.

Structures are written as SMILES. In brackets after ≈: the same amount, converted by molar mass.

Turning to `O=C(O)c1cn(C2CC2)c2cc(N3CCNCC3)c(F)cc2c1=O` [Ciprofloxacin, ciprofloxacin], the MIC90 with Neisseria gonorrhoeae is 0.004 mg/L (≈ 0.0121 µM); with Streptococcus pyogenes it was 1 mg/L (≈ 3.02 µM); in the series with Pseudomonas aeruginosa, 4 mg/L (≈ 12.1 µM). In the series on Bacillus anthracis, the MIC was 1.6 mg/L (≈ 4.83 µM).
